# Experimental data as given in paper PMC6113223 (2018).
# Key:
# [1] = system: Lee aptamer (56-mer) (DNA, aptamer) AGCAGCACAGAGGTCATGGGGGGTGTGACTTTGGTGTGCCTATGCGTGCTACGGAA; assay: AuNP aggregation colorimetry (A650/A525), centrifugation and resuspension; details: 100 mM NaCl (Na+), added after target incubation, water, 5% ethanol in target solution, room temperature; for binding: tested at 600 nM
# [2] = system: Random ssDNA (70-mer) (DNA, single strand) AGGCCTAAGGGCATAATTAGCTCGAGCTCGAAAGGGGTTATATGATGATTTGAATTCATGGGGCCCGACT; assay: as above; details: 100 mM NaCl (Na+), added after target incubation; water, 5% ethanol in target solution, room temperature; control; VTD3 series in Figures 2C and 3B
binding [1],SMILES,also measured
,C=C1CC[C@H](O)C/C1=C/C=C1\CCC[C@]2(C)[C@@H]([C@H](C)/C=C/[C@H](C)C(C)C)CC[C@@H]12,binding ([1]; concentration series in Figure 2C): no
,C=C1CC[C@H](O)C/C1=C/C=C1\CCC[C@]2(C)[C@@H]([C@H](C)CCCC(C)C)CC[C@@H]12,"Kd, app ([1]; 10 min, apparent, Langmuir fit, aptamer adsorbed on AuNP): 220 nM; binding [2]: no"
no,CC(=O)[C@H]1CC[C@H]2[C@@H]3CCC4=CC(=O)CC[C@]4(C)[C@H]3CC[C@]12C,
no,C[C@]12C=CC(=O)C=C1CC[C@@H]1[C@@H]2C(=O)C[C@@]2(C)[C@H]1CC[C@]2(O)C(=O)CO,
no,C[C@]12CC[C@@H]3c4ccc(O)cc4CC[C@H]3[C@@H]1CC[C@@H]2O,
